Experimental data: the supplement of paper PMC11061612

Legend:
Test in all cases: Bliss excess, mean over the matrix (fraction); higher = more synergy
[1] = test system: CAL-148 (Breast Carcinoma)
Summary of the method: (§1)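 Bliss excess equals the observed combination effect minus the expected value EA + EB − EA·EB, where EA and EB are the effects of each agent alone. Combination Emax is the second-highest inhibition within the matrix. Inhibition was scaled from CellTiter-Glo 2.0 luminescence, with 0 set by vehicle wells and 1 by blank wells, after 72 hours of two-drug dosing of cells plated in 1536-well plates.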

[2] = test system: CaR-1 (Colorectal Carcinoma)
Summary of the method: as §1

[3] = test system: Calu-3 (Lung Adenocarcinoma)
Summary of the method: as §1

[4] = test system: DoTc2-4510 (Cervical Carcinoma)
Summary of the method: as §1

[5] = test system: HCC-78 (Lung Adenocarcinoma)
Summary of the method: as §1

[6] = test system: HO-1-N-1 (Oral Cavity Carcinoma)
Summary of the method: as §1

[7] = test system: HOS (Osteosarcoma)
Summary of the method: as §1

[8] = test system: HT-1376 (Bladder Carcinoma)
Summary of the method: as §1

[9] = test system: Hs-578-T (Breast Carcinoma)
Summary of the method: as §1

[10] = test system: KELLY (Neuroblastoma)
Summary of the method: as §1

[11] = test system: KURAMOCHI (Ovarian Carcinoma)
Summary of the method: as §1

[12] = test system: LS-180 (Colorectal Carcinoma)
Summary of the method: as §1

[13] = test system: ME-1 (Acute Myeloid Leukemia)
Summary of the method: as §1

[14] = test system: NB10 (Neuroblastoma)
Summary of the method: as §1

[15] = test system: NCI-H2085 (Non-Small Cell Lung Carcinoma)
Summary of the method: as §1

[16] = test system: RO82-W-1 (Thyroid Gland Carcinoma)
Summary of the method: as §1

[17] = test system: Ramos-2G6-4C10 (Burkitt's Lymphoma)
Summary of the method: as §1

[18] = test system: T98G (Glioblastoma)
Summary of the method: as §1

[19] = test system: TE-9 (Esophageal Squamous Cell Carcinoma)
Summary of the method: as §1

[20] = test system: UM-UC-3 (Bladder Carcinoma)
Summary of the method: as §1

SMILES	Bliss excess [1]	Bliss excess [2]	Bliss excess [3]	Bliss excess [4]	Bliss excess [5]	Bliss excess [6]	Bliss excess [7]	Bliss excess [8]	Bliss excess [9]	Bliss excess [10]	Bliss excess [11]	Bliss excess [12]	Bliss excess [13]	Bliss excess [14]	Bliss excess [15]	Bliss excess [16]	Bliss excess [17]	Bliss excess [18]	Bliss excess [19]	Bliss excess [20]
CN(CCO)CC[C@H](CSc1ccccc1)Nc1ccc(S(=O)(=O)NC(=O)c2ccc(N3CCC([C@@H](O)c4ccccc4-c4ccc(Cl)cc4)CC3)cc2)cc1S(=O)(=O)C(F)(F)F [AZD4320] + CC(=O)O[C@H]1C(=O)[C@@]2(C)[C@H]([C@H](OC(=O)c3ccccc3)[C@]3(O)C[C@H](OC(=O)[C@H](O)[C@@H](NC(=O)c4ccccc4)c4ccccc4)C(C)=C1C3(C)C)[C@]1(OC(C)=O)CO[C@@H]1C[C@@H]2O [Paclitaxel] (first compound max 1 µM, 7x7, partner max 3 µM)	0.0761	0.0892	-0.0045	0.111	0.168	0.0178	0.184	0.0857	0.047	-0.0068	0.0929	-0.0382	0.0994	0.0462	0.207	0.332	-0.151	0.0613	0.0929	0.192
N#Cc1cnc(Nc2cc(NC[C@H]3CNCCO3)c(C(F)(F)F)cn2)cn1 [SRA737] + O=c1[nH]cc(F)c(=O)[nH]1 [5-Fluorouracil] (first compound max 10 µM, 7x7, partner max 20 µM)	0.0099	-0.0495	-0.0137	-0.0201	0.0929	0.0623	0.0248	-0.0591	0.0056	0.0153	-0.0351	-0.053	-0.0532	-0.0036	-0.0495	-0.0283	-0.0068	-0.0277	0.0599	-0.0007
N#Cc1cnc(Nc2cc(NC[C@H]3CNCCO3)c(C(F)(F)F)cn2)cn1 [SRA737] + Nc1ccn([C@@H]2O[C@H](CO)[C@@H](O)C2(F)F)c(=O)n1 [Gemcitabine] (first compound max 10 µM, 7x7, partner max 0.3 µM)	0.0721	-0.0167	0.0286	0.135	0.0509	0.015	0.114	-0.0059	0.0695	0.0213	-0.0079	-0.0884	0.0803	0.0922	-0.0192	-0.0037	0.149	0.0323	0.0126	0.0629
C[C@@H](Oc1cc(-c2cnn(C3CCNCC3)c2)cnc1N)c1c(Cl)ccc(F)c1Cl [Crizotinib] + Cn1cnc2c(F)c(Nc3ccc(Br)cc3Cl)c(C(=O)NOCCO)cc21 [Selumetinib] (first compound max 10 µM, 7x7, partner max 10 µM)	-0.0173	0.0092	-0.0507	-0.0514	0.0444	-0.0087	-0.0566	-0.0419	-0.0131	0.0644	-0.0483	-0.0236	0.0624	-0.0221	-0.0399	-0.0227	-0.0875	-0.0578	-0.0199	-0.0136
O=C(c1cc(Cc2n[nH]c(=O)c3ccccc23)ccc1F)N1CCN(C(=O)C2CC2)CC1 [Olaparib] + CN(CC[C@H](CSC1=CC=CC=C1)NC2=C(C=C(C=C2)S(=O)(=O)NC(=O)C3=CC=C(C=C3)N4CCC(CC4)[C@H](C5=CC=CC=C5C6=CC=C(C=C6)Cl)O)S(=O)(=O)C(F)(F)F)CCO [AZD4320] (first compound max 10 µM, 7x7, partner max 1 µM)	0.0335	-0.054	-0.027	0.03	-0.016	0.0106	0.0192	-0.0572	-0.0625	0.134	-0.0414	-0.0552	-0.0216	-0.0471	-0.0134	0.0031	-0.0184	0.0008	-0.003	0.0086
O=C(c1cc(Cc2n[nH]c(=O)c3ccccc23)ccc1F)N1CCN(C(=O)C2CC2)CC1 [Olaparib] + Cc1c2c(nn1C)CSCc1cc(n(C)n1)CSc1cc(c3ccccc3c1)OCCCc1c(C(=O)O)n(C)c3c-2c(Cl)ccc13 [AZD5991] (first compound max 10 µM, 7x7, partner max 1 µM)	-0.005	-0.0322	-0.0453	-0.0397	-0.0244	0.0456	-0.0292	-0.0392	-0.0621	0.0826	-0.0546	-0.0207	-0.0085	-0.0166	-0.062	-0.0375	0.0249	-0.0277	-0.0397	-0.0182
CN(CCO)CC[C@H](CSc1ccccc1)Nc1ccc(S(=O)(=O)NC(=O)c2ccc(N3CCC([C@@H](O)c4ccccc4-c4ccc(Cl)cc4)CC3)cc2)cc1S(=O)(=O)C(F)(F)F [AZD4320] + Nc1ccn([C@@H]2O[C@H](CO)[C@@H](O)C2(F)F)c(=O)n1 [Gemcitabine] (first compound max 1 µM, 7x7, partner max 0.3 µM)	0.0502	0.0125	0.0076	0.0764	-0.0215	-0.0049	0.0045	-0.0644	0.14	0.0014	0.0216	-0.0907	0.0049	-0.0457	0.0228	-0.0237	-0.0368	-0.0265	0.0151	-0.0229
C[C@@H]1COCCN1c1cc(C2([S@](C)(=N)=O)CC2)nc(-c2ccnc3[nH]ccc23)n1 [AZD6738] + Nc1ccn([C@@H]2O[C@H](CO)[C@@H](O)C2(F)F)c(=O)n1 [Gemcitabine] (first compound max 10 µM, 7x7, partner max 0.3 µM)	0.0914	0.0538	0.0685	0.118	0.067	0.0528	0.134	-0.0097	0.012	-0.0042	0.0761	-0.0568	0.0907	0.0622	0.07	-0.018	0.15	-0.0284	0.038	0.113
CN(CCO)CC[C@H](CSc1ccccc1)Nc1ccc(S(=O)(=O)NC(=O)c2ccc(N3CCC([C@@H](O)c4ccccc4-c4ccc(Cl)cc4)CC3)cc2)cc1S(=O)(=O)C(F)(F)F [AZD4320] + CS(=O)(=O)CCNCc1ccc(-c2ccc3ncnc(Nc4ccc(OCc5cccc(F)c5)c(Cl)c4)c3c2)o1 [Lapatinib] (first compound max 1 µM, 7x7, partner max 10 µM)	-0.0411	-0.0122	0.0224	0.051	-0.0248	0.0439	-0.0381	0.0125	0.0188	0.0272	0.0392	-0.0521	0.0937	-0.0204	0.019	0.0002	0.117	0.0029	0.0137	0.0099
